Laboratory results as given in patent US6632822B1, “Compounds and therapeutic methods” (The Australian National University, priority 1999, dated 2003).
Like-named read-outs stand apart in the source and are kept apart here.

How the values were obtained:
[1] = test system: Plasmodium falciparum chloroquine-resistant strain (FAF6, derived from ITG2 strain); experiment: Growth inhibition of chloroquine-resistant malaria parasite (parasite lactate dehydrogenase viability); format: cell-based
From the text: Compounds IA and IB (also referred to herein as calothrixins A and B respectively) were isolated from Calothrix strains (Schlegel et al, J. Appl, Phycol. 10, 471-479 (1998)), extracts of which were screened for activity against HeLa cells and Plasmodium as described in the Examples.
A chloroquine-resistant strain (FAF6, derived from ITG2 strain (Biggs, B. A., Gooze, L., Wycherley, K., Wollish, W., Southwell, B., Leech, J. H., and Brown, G. V (1991). Proc. Natl. Acad. Sci. USA 88, 9171-9174, 1991) of the malaria parasite. Plasmodium falciparum was used. Parasites were cultured in standard media (Trager, W. and Jensen, J. B. (1976). Science 193 673-675) with modifications (Cranmer, S. L., Magowan, C., Lian, J., Coppel, R. L., and Cooke, B. M. (1997). Trans. Roy. Soc. Trop. Med. Hyg. 91, 363-365). At the start of the assay the parasitaemia was 2% and haematocrit was 2%. Parasites were incubated in the presence of inhibitors in 96-well plates for 48 h.
Parasite-derived lactate dehydrogenase activity at the end of the 48 h period was used as a measure of parasite viability in vitro (Makler, M. T., Ries, J. M., Williams, J. A., Bancroft, J. E., Piper, R. C., Gibbins, B. L., and Hinrichs, D. J. (1993). Am. J. Trop. Med. Hyg. 48, 739-741).
The results are illustrated in FIG. 1.

[2] = test system: HeLa cells; experiment: HeLa cell cytotoxicity, MTT assay; format: cell-based; details: cultured HeLa cells, 4 days continuous incubation, ± s.d., listed as IB (Calothrixin B)
Procedure: The compounds of Formula IA and IB were also examined for their efficacy in inhibiting the growth of cultured HeLa cells (FIG. 2). The IC50 values are depicted in Table 2.
Exponentially growing HeLa cells were trysinized, centrifuged and resuspended in fresh medium. (RPMI 1640, 20% FCS, 2 mM glutamine). […] Calothrix cell extracts or the purified active compound were prepared in dimethyl sulphoxide, serially diluted in complete medium, then added (100 μL) in quadruplicate to cell suspensions. Cells were incubated continuously with extracts at 37° C. for 4 days. Cytotoxicity was determined using the MTT [3-(4,5dimethylthiazol-2-yl)-2,5-diphenyl-tetrazolium bromide] assay. MTT (50 μL, 2 mg ML^−1) was aliquotted into all wells of the microtitre plate and incubated at 37° C. for 4 h. Plates were inverted to discard medium and formazan crystals were solubilized in 100 μL DMSO with 25 μL glycine buffer (0.1 M glycine in 0.1 M NaCl, pH 10.5). Plates were agitated for 30 s and absorbances determined immediately at […] using a Titertek Multiskan Plus MKII ELISA plate reader.
The results are illustrated in FIG. 2.

| SMILES | IC50 ([1]; Plasmodium falciparum, 48 h) [µM] | IC50 ([1]; chloroquine-resistant P. falciparum strain FAF6, 48 h incubation, parasite lactate dehydrogenase activity, ± s.d., listed as IB (Calothrixin B), read-out: IC50) [µM] | IC50 [2] [µM] |
| --- | --- | --- | --- |
| CCN(CC)CCCC(C)Nc1ccnc2cc(Cl)ccc12 (stereo not drawn) [Chloroquine, reference compound] | 0.18 ± 0.044 | – | – |
| O=C1c2[nH]c3ccccc3c2C(=O)c2cnc3ccccc3c21 [IB, Calothrixin B] | – | 0.083 ± 0.017 | 0.35 ± 0.082 |
